Data published in patent US20240115557A1, “INHIBITORS OF RNA-GUIDED NUCLEASES AND USES THEREOF” (The Brigham and Women's Hospital, Inc., priority 2022, published 2024).

Experiments:
SpCas9 = SpCas9 (Streptococcus pyogenes serotype M1, UniProt Q99ZW2); experiment: Strand displacement assay (SDA) / cumulative activity assay (CAA), SpCas9 primary screen; type: biochemical; conditions: Primary Screen (150 min); for Normalized Z score 1: replicate 1; for Normalized Z score 2: replicate 2
Experimental: Screening of inhibitors was via a high throughput pipeline, as depicted in FIG. 29. The first screening is via a strand displacement assay (SDA) for detecting nuclease activity (FIG. 27A, 28A). The Cpf1/Cas12 protein/DNA complex has a different structure from Cas9 and requires optimization of the potential fluorophore attachment sites (Yamano, T et al., Cell, 2016). (FIG. 28A). Next screened compounds are evaluated in an eGFP cell assay, and for eGFP dose. Those compounds are further narrowed via a HiBiT assay and finally evaluated in the surveyor assay. SAR evaluations are performed to arrive at lead compounds for further evaluations and variations. General methodology for the assays is as described in at [0253]-[0301] of U.S. Patent Application 62/831,143 filed Apr. 8, 2019, incorporated herein by reference.
The 3′ end of the displacing single-stranded DNA was labeled with a quencher. Following nuclease cleavage of the substrate, the 3′-labeled quenching DNA strand (present in excess) could outcompete the weakly held 3′ strand to anneal to the 5′ strand. The resulting FRET fluorescence quenching provides an optical readout for nuclease activity (FIG. 62A).
Typically, SpCas9: gRNA (1:1.2 ratio) RNP was pre-formed at 1 μM in Cas9 assay buffer (20 mM Tris-HCl, pH=7.5, 100 mM KCl, 5 mM MgCl2) for 5 min at 4° C. before diluting to 10 nM in Cas9 assay buffer (2× final concentration). 25 μL of the Cas9 2× stock was manually dispensed to a black 384-well plate (Corning 3575) using electronic pipette. […] Following this, pre-annealed Alexa-Fluor 647 labeled substrate and quencher were also diluted to 1 nM and 5 nM in Cas9 assay buffer, respectively (2× stock solution). Next, 25 μL of the substrate/quencher solution was added manually to each well of the Cas9-containing 384-well plates using an electronic pipette and was incubated at 37° C. for 2.5 h. Fluorescent signals were read with the microplate reader set to read Alexa-Fluor 647 fluorescence. Assay was performed similarly with SaCas9 and FnCas12a using the respective enzyme, gRNA, substrate, and quencher oligos. […]

SaCas9 = molecular target: T1, SaCas9 (Staphylococcus aureus, UniProt J7RUA5); experiment: Strand displacement assay, SaCas9 primary screen; type: biochemical; conditions: for Auto Zscore Rep 1 / Auto Zscore Rep 2 / Normalized Zscore Rep 1 / Normalized Zscore Rep 2: SaCas9 primary screen; for Auto Zscore Rep 1 / Normalized Zscore Rep 1: replicate 1; for Auto Zscore Rep 2 / Normalized Zscore Rep 2: replicate 2; for Normalized Zscore Rep 1 / Normalized Zscore Rep 2: weaker potential hits; for 3 sigma Hit: flag 1 = hit at 3 sigma; for 5 sigma Hit: flag 1 = hit at 5 sigma
T1 sequence (J7RUA5 1-1053): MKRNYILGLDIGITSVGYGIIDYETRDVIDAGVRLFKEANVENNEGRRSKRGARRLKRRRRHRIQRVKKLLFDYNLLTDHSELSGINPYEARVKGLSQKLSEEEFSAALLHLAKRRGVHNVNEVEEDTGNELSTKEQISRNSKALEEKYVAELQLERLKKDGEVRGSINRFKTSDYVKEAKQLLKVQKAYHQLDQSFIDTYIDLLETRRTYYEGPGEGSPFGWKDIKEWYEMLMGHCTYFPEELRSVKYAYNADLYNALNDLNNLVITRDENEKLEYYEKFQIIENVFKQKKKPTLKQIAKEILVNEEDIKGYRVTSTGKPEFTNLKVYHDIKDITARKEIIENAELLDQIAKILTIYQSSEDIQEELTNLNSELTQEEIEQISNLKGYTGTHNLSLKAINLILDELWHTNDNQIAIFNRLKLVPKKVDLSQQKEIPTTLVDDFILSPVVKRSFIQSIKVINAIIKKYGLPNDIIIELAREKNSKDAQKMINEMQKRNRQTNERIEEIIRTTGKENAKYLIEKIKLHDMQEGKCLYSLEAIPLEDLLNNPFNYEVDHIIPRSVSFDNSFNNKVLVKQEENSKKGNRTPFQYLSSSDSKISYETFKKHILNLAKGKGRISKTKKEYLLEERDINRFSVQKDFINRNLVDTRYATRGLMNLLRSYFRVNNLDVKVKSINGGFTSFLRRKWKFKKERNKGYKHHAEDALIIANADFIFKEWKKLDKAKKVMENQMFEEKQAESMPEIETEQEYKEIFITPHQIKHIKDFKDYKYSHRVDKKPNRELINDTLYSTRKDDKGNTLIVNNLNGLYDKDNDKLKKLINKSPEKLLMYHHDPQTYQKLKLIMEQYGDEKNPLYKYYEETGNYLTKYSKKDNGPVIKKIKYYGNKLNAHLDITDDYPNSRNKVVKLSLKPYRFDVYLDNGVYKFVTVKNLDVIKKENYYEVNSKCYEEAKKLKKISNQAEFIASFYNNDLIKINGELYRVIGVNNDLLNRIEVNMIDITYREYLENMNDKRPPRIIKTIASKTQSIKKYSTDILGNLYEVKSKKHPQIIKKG
Method in brief: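 Cas9 RNP (1:1.2 protein:gRNA) pre-formed in 20 mM Tris-HCl pH 7.5, 100 mM KCl, 5 mM MgCl2, used at 10 nM (2× stock) with Alexa-Fluor 647 substrate/quencher at 1 nM/5 nM (2× stock). Reaction ran 2.5 h at 37°C; strand displacement read as fluorescence. Hits called by Z-score: 3–5σ weak, >5σ strong.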

Sequence of SpCas9 (Q99ZW2 whole entry): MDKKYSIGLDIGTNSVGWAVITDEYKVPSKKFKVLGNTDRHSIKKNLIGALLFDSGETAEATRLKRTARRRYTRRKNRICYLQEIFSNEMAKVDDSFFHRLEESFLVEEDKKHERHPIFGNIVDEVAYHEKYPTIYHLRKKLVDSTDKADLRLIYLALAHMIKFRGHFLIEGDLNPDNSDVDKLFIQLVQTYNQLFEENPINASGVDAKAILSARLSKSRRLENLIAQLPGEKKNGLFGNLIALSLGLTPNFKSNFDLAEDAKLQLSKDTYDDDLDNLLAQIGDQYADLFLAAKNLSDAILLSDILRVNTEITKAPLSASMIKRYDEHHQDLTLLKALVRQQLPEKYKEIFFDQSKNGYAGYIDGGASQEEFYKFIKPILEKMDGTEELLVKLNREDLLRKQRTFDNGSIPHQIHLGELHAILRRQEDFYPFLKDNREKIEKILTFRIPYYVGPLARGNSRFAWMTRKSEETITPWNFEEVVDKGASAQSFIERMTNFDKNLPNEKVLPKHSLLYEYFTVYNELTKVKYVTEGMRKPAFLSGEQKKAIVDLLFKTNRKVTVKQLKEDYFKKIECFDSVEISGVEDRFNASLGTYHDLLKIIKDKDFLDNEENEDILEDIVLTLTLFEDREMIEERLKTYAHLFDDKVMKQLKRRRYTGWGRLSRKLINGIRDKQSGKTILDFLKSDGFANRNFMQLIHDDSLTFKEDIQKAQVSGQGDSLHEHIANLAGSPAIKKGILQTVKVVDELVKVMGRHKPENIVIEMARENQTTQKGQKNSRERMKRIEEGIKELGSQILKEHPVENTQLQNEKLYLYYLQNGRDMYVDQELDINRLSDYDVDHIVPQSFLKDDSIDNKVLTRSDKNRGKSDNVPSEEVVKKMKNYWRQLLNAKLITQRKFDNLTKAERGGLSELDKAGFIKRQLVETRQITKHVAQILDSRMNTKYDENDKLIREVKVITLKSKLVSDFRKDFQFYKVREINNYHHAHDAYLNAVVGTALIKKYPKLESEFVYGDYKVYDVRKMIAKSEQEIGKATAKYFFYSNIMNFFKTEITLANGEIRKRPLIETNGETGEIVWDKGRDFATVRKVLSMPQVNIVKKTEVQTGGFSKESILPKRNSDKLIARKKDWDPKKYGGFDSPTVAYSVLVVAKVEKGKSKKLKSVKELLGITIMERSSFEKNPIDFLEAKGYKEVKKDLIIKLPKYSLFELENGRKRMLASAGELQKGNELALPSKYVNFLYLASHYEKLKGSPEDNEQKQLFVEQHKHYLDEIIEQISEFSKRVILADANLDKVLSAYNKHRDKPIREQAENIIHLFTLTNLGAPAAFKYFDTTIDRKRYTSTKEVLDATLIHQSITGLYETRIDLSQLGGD

| Compound | Average Normalized Z score (SpCas9) | avg z score primary (SpCas9) | Normalized Z score 1 (SpCas9) | Normalized Z score 2 (SpCas9) | Average Normalized Z score (SpCas9; average of replicates) | Auto Zscore Rep 1 (SaCas9) | Auto Zscore Rep 2 (SaCas9) | Normalized Zscore Rep 1 (SaCas9) | Normalized Zscore Rep 2 (SaCas9) | 3 sigma Hit (SaCas9) | 5 sigma Hit (SaCas9) |
| --- | --- | --- | --- | --- | --- | --- | --- | --- | --- | --- | --- |
| COc1ccc(C(=O)Oc2cc(-c3ccc(OC)c(OC)c3)cc(=O)c3c(C)oc(C)c23)cc1 [Compound D132-0053] | 0.20 | 3.32 | 0.21 | 0.19 |  |  |  |  |  |  |  |
| CCCCC(=O)Nc1ccc(N2CCC(C(N)=O)(N3CCCCC3)CC2)c(C(=O)O)c1 [Compound G889-0171] | 0.07 | 3.38 | 0.07 | 0.07 |  |  |  |  |  |  |  |
| CN1CCN(c2ccc(CNC(=O)Cn3ccc4c(SCc5ccccc5)nccc43)cc2)CC1 [Compound M056-0617] |  | 4.82 | 0.05 | 0.07 | 0.06 |  |  |  |  |  |  |
| O=C([O-])C(O)Cc1ccc(O)c(O)c1.[Na+] (stereo not shown) [Compound S2401] |  | 4.93 | 0.22 | 0.29 | 0.25 |  |  |  |  |  |  |
| Cl.NC(CO)C(=O)NNCc1ccc(O)c(O)c1O (stereo not shown) [Compound S2453] |  | 5.09 | 0.21 | 0.32 | 0.26 |  |  |  |  |  |  |
| CCCN(CCC)C1=CC(=O)C(C)=C(C)C1=O [Compound T0502-3042] |  | 4.92 | 0.32 | 0.30 | 0.31 |  |  |  |  |  |  |
| COc1ccc(-n2c(N(C(C)=O)C(C)=O)c(C#N)c3nc4ccccc4nc32)cc1 [Compound T0503-6223] |  | 14.21 | 0.16 | 0.16 | 0.16 |  |  |  |  |  |  |
| O=C(N/N=C/c1ccc(O)c(O)c1O)c1cccc(S(=O)(=O)Nc2ccccc2Cl)c1 [Compound T0506-5702] |  | 4.48 | 0.07 | 0.07 | 0.07 |  |  |  |  |  |  |
| Cc1ccc(C(=O)n2ncn(C)c2=S)cc1 [Compound T0510-3476] |  | 28.56 | 0.39 | 0.42 | 0.41 |  |  |  |  |  |  |
| O=C(CCC(=O)c1ccc(F)cc1)OC1CCOC1=O (stereo not shown) [Compound T0512-8635] |  | 4.05 | 0.04 | 0.04 | 0.04 |  |  |  |  |  |  |
| O=C(CSc1nnc2ccccn12)Nc1cc(C(=O)O)cc(C(=O)O)c1 [Compound T0513-0201] |  | 11.30 | 0.10 | 0.13 | 0.11 |  |  |  |  |  |  |
| CCOC(=O)C1CCCN(Cn2nnn(-c3ccc(OC)cc3)c2=S)C1 (stereo not shown) [Compound T0513-0218] |  | 3.45 | 0.04 | 0.03 | 0.04 |  |  |  |  |  |  |
| O=C(Nc1nnc(C2CC2)s1)c1ccc2ncsc2c1 [Compound T0514-1693] |  | 5.62 | 0.07 | 0.07 | 0.07 |  |  |  |  |  |  |
| O=C1c2cccc3cccc(c23)N1S(=O)(=O)c1cccs1 [Cpd T0503-3218] |  |  |  |  |  | 1.379 | 1.343 | 0.1426 | 0.123 | 1 |  |
| Cc1ccc(C)c(SCC(=O)NC(C)C(c2ccccc2)N2CCOCC2)c1 (stereo not shown) [Cpd T0507-0044] |  |  |  |  |  | 1.662 | −1.14 | 0.2923 | 0.2417 | 1 | 1 |
| O=C(CSc1ccc2ccccc2c1)N1CCN(c2ccc(O)cc2)CC1 [Cpd T0508-7813] |  |  |  |  |  | −2.33 | −1.326 | 0.1931 | 0.165 | 1 |  |
| O=C(CSc1ccc2ccccc2c1)NCCc1ccc(O)c(O)c1 [Cpd T0509-3636] |  |  |  |  |  | 0.8861 | 0.3048 | 0.4351 | 0.3562 | 1 | 1 |
| Cc1ccc(C)n1CCN1CCN(S(=O)(=O)c2ccccc2)CC1 [Cpd T0510-3387] |  |  |  |  |  | 1.126 | −0.9366 | 0.1436 | 0.1737 | 1 |  |
| O=C(CSc1nnc2ccccn12)N1CCc2ccccc2C1 [Cpd T0512-2617] |  |  |  |  |  | −1.3165 | 0.881 | 0.3066 | 0.3358 | 1 | 1 |
| Cc1cc(Nc2ccccc2)n(-c2ccccc2C(=O)O)n1 [Cpd T0513-3165] |  |  |  |  |  | 0.05393 | −1.233 | 0.4933 | 0.4517 | 1 | 1 |
| O=C1CC(NC(=O)c2ccc(Cl)cc2)C(=O)N1 (stereo not shown) [Cpd T0513-4457] |  |  |  |  |  | 0.257 | 0.3998 | 0.4361 | 0.4132 | 1 | 1 |
